{
  "source": "patent US11761045B2",
  "about": "“Splice variants associated with neomorphic SF3B1 mutants” (Eisai R&D Management Co., Ltd., priority 2015, dated 2023)",
  "key": {"[1]": {"target": "T1, SF3B1^K700E (Homo sapiens, UniProt O75533+Q7RTV0, K700E)", "assay": "Competitive binding assay (SPA, 3H-probe molecule) with Flag-tag SF3B1 from 293F cells", "set-up": "expressed in transfected cells; host or cells: 293F cells (Life Technologies), transient transfection with pFLAG-CMV-2-SF3B1 K700E", "settings": "one nM 3H-probe; Flag-tag SF3B1^K700E from transfected 293F cells; read-out: IC50, competitive inhibition of binding of the 3H-probe molecule", "procedure": "The ability of E7107 to bind both SF3B1^WT and SF3B1^K700E proteins was evaluated in a competitive binding assay using Flag-tag SF3B1 proteins immunoprecipitated with anti-Flag antibody from transiently transfected 293F cells. Batch immobilization of antibody to beads was prepared by incubating 80 μg of anti-SF3B1 antibody (MBL International) and 24 mg anti-mouse PVT SPA scintillation beads (PerkinElmer) for 30 minutes. After centrifugation, the antibody-bead mixture was resuspended in PBS supplemented with PhosSTOP phosphatase inhibitor cocktail (Roche) and complete ULTRA protease inhibitor cocktail (Roche). Nuclear extracts were prepared by diluting 40 mg into a total volume of 16 mL PBS with phosphatase and protease inhibitors, and the mixture was centrifuged. The supernatant was transferred into a clean tube, and the antibody-bead mixture was added and incubated for two hours. The beads were collected by centrifuging, washed twice with PBS+0.1% Triton X-100, and resuspended with 4.8 mL of PBS. 100 μL binding reactions were prepared using slurry and varying concentrations of E7107. […] The mixture was incubated at room temperature for 15 minutes, and luminescence signals were read using a MicroBeta2 Plate Counter (PerkinElmer)."}, "[2]": {"target": "T1, SF3B1^K700E", "assay": "In vitro splicing assay (IVS), Ad2 pre-mRNA substrate, nuclear extracts", "assay_type": "biochemical", "set-up": "expressed in transfected cells; host or cells: nuclear extract of 293F cells transfected with pFLAG-CMV-2-SF3B1 K700E (the same assay was also run with Nalm-6 SF3B1 K700E nuclear extract)", "settings": "nuclear extracts from Nalm-6 SF3B1^K700E cells or 293F cells expressing Flag-tag SF3B1^K700E", "procedure": "E7107 is a small-molecule compound that inhibits splicing by targeting the U2 snRNP-associated complex SF3B (Kotake, Y. et al. “Splicing factor SF3b as a target of the antitumor natural product pladienolide.” Nat Chem Biol 3, 570-575, doi:10.1038/nchembio.2007.16 [2007]).\nNuclear extracts were prepared from 293F cells transfected with pFLAG-CMV-2-SF3B1 plasmids, or from isogenic Nalm-6 cells (SBH Sciences). The plasmids were generated by cloning the mxSF3B1 gene into the HindIII and KpnI sites of pFLAG-CMV2 (Sigma), and the mutations mxSF3B1^K700E, mxsF3B1^R1074H and mxSF3B1^K700E-R1074H were introduced using […]. Cell pellets were resuspended in hypotonic buffer (10 mM HEPES pH 7.9, 1.5 mM MgCl2, 10 mM KCl, 0.2 mM PMSF, and 0.5 mM DTT; for Nalm-6 cells, 40 mM KCl was used). The suspension was brought up to a total of five packed cell volumes (PCV). After centrifugation, the supernatant was discarded, and the cells were brought up to 3 PCV with hypotonic buffer, and incubated on ice for 10 minutes. Cells were lysed using a dounce homogenizer and then centrifuged. […] Protein concentration was determined using NanoDrop 8000 UV-Vis spectrophotometer (Thermo Scientific). […]"}},
  "data": [
    {"compound": "CC[C@H](O)[C@@H](C)[C@H]1O[C@@H]1C[C@@](C)(O)/C=C/C=C(\\C)[C@H]1OC(=O)C[C@H](O)CC[C@@](C)(O)[C@@H](OC(=O)N2CCN(C3CCCCCC3)CC2)/C=C/[C@@H]1C", "note": "[Compound E7107]", "values": [
      {"measurement": "IC50", "setting": "[1]", "value": 11, "unit": "nM"},
      {"measurement": "inhibition of splicing of Ad2 pre-mRNA in nuclear extracts", "setting": "[2]", "value": "able to inhibit splicing"}
    ]}
  ]
}
